pIC50: −log10 of the molar value.
target: T1, human MGL from HeLa cells (Homo sapiens, UniProt Q99685); assay: In vitro MGL activity assay: [glycerol-1,3-3H]-oleyl glycerol cleavage by MGL from HeLa cells; type: biochemical; conditions: 300 nM [Glycerol-1,3-3H]-oleyl glycerol, one hour
T1 construct: combining endogenously expressed MGL from HeLa cells with test compounds; endogenous in cells; host or cells: HeLa cells / cell homogenates
T1 sequence (Q99685 1-303): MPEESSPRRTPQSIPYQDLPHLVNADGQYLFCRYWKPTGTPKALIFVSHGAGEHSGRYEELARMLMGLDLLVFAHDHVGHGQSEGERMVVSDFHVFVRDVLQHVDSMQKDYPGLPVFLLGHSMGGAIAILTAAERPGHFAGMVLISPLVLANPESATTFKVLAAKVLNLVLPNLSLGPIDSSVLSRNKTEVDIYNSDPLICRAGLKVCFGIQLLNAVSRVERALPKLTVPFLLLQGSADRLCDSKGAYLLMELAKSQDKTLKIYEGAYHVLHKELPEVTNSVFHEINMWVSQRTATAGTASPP
Description: MGL is the predominant hydrolase in HeLa cells/cell homogenates.

pIC50 | Structure (SMILES)
7.60 | C[C@H]1c2nn(C)c(-c3cc(F)c(F)c(F)c3)c2CCN1C(=O)c1cnn(C)c1C1CCC1 [Example 333, (5-Cyclobutyl-1-methyl-pyrazol-4-yl)-[(7S)-2,7-dimethyl-3-(3,4,5-trifluorophenyl)-5,7-dihydro-4H-pyrazolo[3,4-c]pyridin-6-yl]methanone]
5.55 | C[C@H]1c2nn(C)c(-c3cc(F)c(F)c(F)c3)c2CCN1C(=O)c1cnn(C)c1C1(C)CC1 [Example 334, [(7S)-2,7-Dimethyl-3-(3,4,5-trifluorophenyl)-5,7-dihydro-4H-pyrazolo[3,4-c]pyridin-6-yl]-[1-methyl-5-(1-methylcyclopropyl)pyrazol-4-yl]methanone]
7.49 | C[C@H]1c2nn(C)c(-c3cc(F)c(F)c(F)c3)c2CCN1C(=O)c1cnn(C)c1C1(F)CC1 [Example 335, [(7S)-2,7-Dimethyl-3-(3,4,5-trifluorophenyl)-5,7-dihydro-4H-pyrazolo[3,4-c]pyridin-6-yl]-[5-(1-fluorocyclopropyl)-1-methyl-pyrazol-4-yl]methanone]

same assay, conditions: 300 nM [Glycerol-1,3-3H]-oleyl glycerol, one hour incubation

pIC50 | Structure (SMILES)
7.38 | C[C@H]1c2nn(C)c(-c3cc(F)c(F)c(F)c3)c2CCN1C(=O)c1ncn(-c2ncccc2F)n1 [Example 324, [(7S)-2,7-Dimethyl-3-(3,4,5-trifluorophenyl)-5,7-dihydro-4H-pyrazolo[3,4-c]pyridin-6-yl]-[1-(3-fluoro-2-pyridyl)-1,2,4-triazol-3-yl]methanone]
8.10 | C[C@H]1c2nn(C)c(-c3cc(F)c(F)c(F)c3)c2CCN1C(=O)c1ccc(-c2ccccn2)s1 [Example 325, [(7S)-2,7-Dimethyl-3-(3,4,5-trifluorophenyl)-5,7-dihydro-4H-pyrazolo[3,4-c]pyridin-6-yl]-[5-(2-pyridyl)-2-thienyl]methanone]
6.28 | COc1cnc(C(=O)N2CCc3c(nn(C)c3-c3cc(F)c(F)c(F)c3)[C@@H]2C)cn1 [Example 326, [(7S)-2,7-Dimethyl-3-(3,4,5-trifluorophenyl)-5,7-dihydro-4H-pyrazolo[3,4-c]pyridin-6-yl]-(5-methoxypyrazin-2-yl)methanone]
7.26 | Cc1cc(F)cc(-c2c3c(nn2C)[C@H](C)N(C(=O)c2cnn(C)c2C)CC3)c1 [Example 327, (1,5-Dimethylpyrazol-4-yl)-[(7S)-3-(3-fluoro-5-methyl-phenyl)-2,7-dimethyl-5,7-dihydro-4H-pyrazolo[3,4-c]pyridin-6-yl]methanone]
5.96 | CC(C)c1c(C(=O)N2CCc3c(nn(C)c3-c3cc(F)c(F)c(F)c3)[C@@H]2C)cnn1C [Example 328, [(7S)-2,7-Dimethyl-3-(3,4,5-trifluorophenyl)-5,7-dihydro-4H-pyrazolo[3,4-c]pyridin-6-yl]-(5-isopropyl-1-methyl-pyrazol-4-yl)methanone]
5.29 | C[C@H]1c2nn(C)c(-c3cc(F)c(F)c(F)c3)c2CCN1C(=O)c1cnn(C(F)(F)F)c1 [Example 329, [(7S)-2,7-Dimethyl-3-(3,4,5-trifluorophenyl)-5,7-dihydro-4H-pyrazolo[3,4-c]pyridin-6-yl]-[1-(trifluoromethyl)pyrazol-4-yl]methanone]
6.99 | C[C@H]1c2nn(C)c(-c3cc(F)c(F)c(F)c3)c2CCN1C(=O)c1cnn(C)c1C(F)F [Example 330, [5-(Difluoromethyl)-1-methyl-pyrazol-4-yl]-[(7S)-2,7-dimethyl-3-(3,4,5-trifluorophenyl)-5,7-dihydro-4H-pyrazolo[3,4-c]pyridin-6-yl]methanone]
6.60 | C[C@H]1c2nn(C)c(-c3cc(F)c(F)c(F)c3)c2CCN1C(=O)c1cnn(C2CC2)c1 [Example 331, (1-Cyclopropylpyrazol-4-yl)-[(7S)-2,7-dimethyl-3-(3,4,5-trifluorophenyl)-5,7-dihydro-4H-pyrazolo[3,4-c]pyridin-6-yl]methanone]
6.84 | C[C@H]1c2nn(C)c(-c3cc(F)c(F)c(F)c3)c2CCN1C(=O)c1cn(C2CC2)nc1C(F)(F)F [Example 332, [1-Cyclopropyl-3-(trifluoromethyl)pyrazol-4-yl]-[(7S)-2,7-dimethyl-3-(3,4,5-trifluorophenyl)-5,7-dihydro-4H-pyrazolo[3,4-c]pyridin-6-yl]methanone]

From patent publication US11820766B2, “Monoacylglycerol lipase modulators” (Janssen Pharmaceutica NV, priority 2018, dated 2023)
